Measurements published in publication PMC11823630, “In vitro potentiation of tetracyclines in Pseudomonas aeruginosa by RW01, a new cyclic peptide” (Antimicrobial Agents and Chemotherapy, 2024).
In brackets after ≈: the same amount, converted by molar mass.

What was measured:
[1] = system: PAO1 mutant MIN32_1, mexR(R63H), pilB(N349K), PA0646(V316G); test: MIC, Sensititre custom plate; type: cell-based; conditions: Pseudomonas aeruginosa, PAO1, read-out: MIC, Sensititre
Method: (§1) Selection of resistant mutants was performed for minocycline with and without RW01 in three independent replicates for wild-type P. aeruginosa reference strain PAO1. Tubes containing Mueller-Hinton broth (MHB) were inoculated and incubated for 24 h at 37°C. Afterward, 1/100 dilution of each tube was incubated at 37°C in MHB to late-exponential growth phase, measured by spectrophotometry at OD600. […] A control plate without antibiotic was included as inoculum control. After overnight incubation, colony counting of each treatment was performed to analyze the generation of resistant population. The mutant prevention concentration (MPC) was defined as the lowest concentration of antibiotic yielding no growth of resistant mutants. Selected mutants were checked for susceptibility profiles by using a Sensititre custom plate (Thermo Fisher Scientific, Massachusetts, USA) for Gram-negative bacteria, following the manufacturer’s instructions.

[2] = system: PAO1 mutant MIN8_4, pilZ(nt18InsT); test: MIC, Sensititre custom plate; type: cell-based; conditions: Pseudomonas aeruginosa, PAO1, read-out: MIC, Sensititre
Method: as §1

[3] = system: PAO1 mutant MIN16_4, nalC(T50P), pilM(Q62X); test: MIC, Sensititre custom plate; type: cell-based; conditions: Pseudomonas aeruginosa, PAO1, read-out: MIC, Sensititre
Method: as §1

[4] = system: PAO1 mutant MIN4_RW01_1, pmrB(R429H); test: MIC, Sensititre custom plate; type: cell-based; conditions: Pseudomonas aeruginosa, PAO1, read-out: MIC, Sensititre
Method: as §1

[5] = system: PAO1 mutant MIN2_RW01_4, pmrB(M292T); test: MIC, Sensititre custom plate; type: cell-based; conditions: Pseudomonas aeruginosa, PAO1, read-out: MIC, Sensititre
Method: as §1

[6] = system: PAO1 mutant MIN2_RW01_3, parS(V152A); test: MIC, Sensititre custom plate; type: cell-based; conditions: Pseudomonas aeruginosa, PAO1, read-out: MIC, Sensititre
Method: as §1

[7] = system: PAO1 mutant MIN16_3, nfxB(nt79∆14), pilB(N349K); test: MIC, Sensititre custom plate; type: cell-based; conditions: Pseudomonas aeruginosa, PAO1, read-out: MIC, Sensititre
Method: as §1

[8] = system: PAO1 mutant MIN1_RW01_2, mexR(G58E), pilB(G326D), hutC(Y181X); test: MIC, Sensititre custom plate; type: cell-based; conditions: Pseudomonas aeruginosa, PAO1, read-out: MIC, Sensititre
Method: as §1

[9] = system: PAO1 mutant MIN8_3, pilZ(nt18InsT); test: MIC, Sensititre custom plate; type: cell-based; conditions: Pseudomonas aeruginosa, PAO1, read-out: MIC, Sensititre
Method: as §1

[10] = system: P. aeruginosa 41A; test: MIC, CLSI broth microdilution in BD Phoenix AST Broth; type: cell-based, Pseudomonas aeruginosa; conditions: Pseudomonas aeruginosa; strain 41A; agent alone; 37°C, 18–22 h; three biological replicates
Method: (§2) MIC for RW01 was also tested.
(§3) FIC of RW01 (FICRW01)=MIC of RW01 in combination/MIC of RW01 alone,FIC of antibiotic (FICATB)=MIC of ATB in combination/MIC of ATB alone,FICI=FICRW01 +FICATB.
(§4) FICI was interpreted as follows: synergistic effect if FICI is ≤0.5; additive effect if 0.5 < FICI ≤ 1.0; indifferent effect if 1.0 < FICI ≤ 2.0; and finally, antagonistic effect if FICI is >2.0. The average FICI considering the antibiotic MIC (no growth in any of the replicates) at different concentrations of RW01 was calculated ([28]).

[11] = system: P. aeruginosa PAO1; test: as above; type: cell-based, Pseudomonas aeruginosa; conditions: Pseudomonas aeruginosa, PAO1, strain PAO1; agent alone; 37°C, 18–22 h; three biological replicates; read-out: MIC
Method: as §2, §3, §4

[12] = system: P. aeruginosa PAOΔoprM; test: as above; type: cell-based, Pseudomonas aeruginosa; conditions: Pseudomonas aeruginosa
Method: as §2, §3, §4

[13] = system: P. aeruginosa PAOΔmexR; test: as above; type: cell-based, Pseudomonas aeruginosa; conditions: for MIC: Pseudomonas aeruginosa
Method: as §2, §3, §4

[14] = system: P. aeruginosa 125A; test: as above; type: cell-based, Pseudomonas aeruginosa; conditions: strain 125A; for MIC: Pseudomonas aeruginosa, agent alone, 37°C, 18–22 h, three biological replicates
Method: as §2, §3, §4

[15] = system: P. aeruginosa 41B; test: as above; type: cell-based, Pseudomonas aeruginosa; conditions: Pseudomonas aeruginosa; strain 41B; agent alone; 37°C, 18–22 h; three biological replicates
Method: as §2, §3, §4

[16] = system: P. aeruginosa 125B; test: as above; type: cell-based, Pseudomonas aeruginosa; conditions: strain 125B; for MIC: Pseudomonas aeruginosa, agent alone, 37°C, 18–22 h, three biological replicates
Method: as §2, §3, §4

[17] = system: P. aeruginosa PAOUW; test: as above; type: cell-based, Pseudomonas aeruginosa; conditions: Pseudomonas aeruginosa, strain PAOUW; agent alone; 37°C, 18–22 h; three biological replicates; read-out: MIC
Method: as §2, §3, §4

[18] = system: P. aeruginosa PAOUW∆oprF; test: as above; type: cell-based, Pseudomonas aeruginosa; conditions: Pseudomonas aeruginosa, strain PAOUWΔoprF; agent alone; 37°C, 18–22 h; three biological replicates
Method: as §2, §3, §4

[19] = system: P. aeruginosa PAOΔmexZ; test: as above; type: cell-based, Pseudomonas aeruginosa; conditions: Pseudomonas aeruginosa, strain PAOΔmexZ; agent alone; 37°C, 18–22 h; three biological replicates
Method: as §2, §3, §4

[20] = system: PAO1 mutant MIN4_RW01_4, pmrB(Y98N); test: MIC, Sensititre custom plate; type: cell-based; conditions: Pseudomonas aeruginosa, PAO1, read-out: MIC, Sensititre
Method: as §1

[21] = system: P. aeruginosa PAO1, WT; test: MIC, Sensititre custom plate; type: cell-based; conditions: Pseudomonas aeruginosa, PAO1, read-out: MIC, Sensititre
Method: as §1

[22] = system: PAO1 mutant MIN4_RW01_3, pmrB(M292T); test: MIC, Sensititre custom plate; type: cell-based; conditions: Pseudomonas aeruginosa, PAO1, read-out: MIC, Sensititre
Method: as §1

[23] = system: PAO1 mutant MIN1_RW01_3, pmrB(V215L); test: MIC, Sensititre custom plate; type: cell-based; conditions: Pseudomonas aeruginosa, PAO1, read-out: MIC, Sensititre
Method: as §1

[24] = system: PAO1 mutant MIN2_RW01_2, pmrB(M292T); test: MIC, Sensititre custom plate; type: cell-based; conditions: Pseudomonas aeruginosa, PAO1, read-out: MIC, Sensititre
Method: as §1

[25] = system: PAO1 mutant MIN16_2, nalC(aa9∆4), pilQ(nt46∆1); test: MIC, Sensititre custom plate; type: cell-based; conditions: Pseudomonas aeruginosa, PAO1, read-out: MIC, Sensititre
Method: as §1

[26] = system: PAO1 mutant MIN1_RW01_1, pmrB(Y98N); test: MIC, Sensititre custom plate; type: cell-based; conditions: Pseudomonas aeruginosa, PAO1, read-out: MIC, Sensititre
Method: as §1

[27] = system: PAO1 mutant MIN8_2, pilZ(nt18InsT); test: MIC, Sensititre custom plate; type: cell-based; conditions: Pseudomonas aeruginosa, PAO1, read-out: MIC, Sensititre
Method: as §1

[28] = system: PAO1 mutant MIN16_1, nalD(T43P); test: MIC, Sensititre custom plate; type: cell-based; conditions: Pseudomonas aeruginosa, PAO1, read-out: MIC, Sensititre
Method: as §1

[29] = system: PAO1 mutant MIN8_1, nalD(R3C), pilM(Q62X); test: MIC, Sensititre custom plate; type: cell-based; conditions: Pseudomonas aeruginosa, PAO1, read-out: MIC, Sensititre
Method: as §1

[30] = system: PAO1 mutant MIN4_RW01_2, pmrB(F124S); test: microbe, parasite or virus in culture; type: cell-based; conditions: Pseudomonas aeruginosa, PAO1, read-out: MIC, Sensititre
Method: as §1

[31] = system: PAO1 mutant MIN2_RW01_1, pmrB(V215L); test: MIC, Sensititre custom plate; type: cell-based; conditions: Pseudomonas aeruginosa, PAO1, read-out: MIC, Sensititre
Method: as §1

[32] = antibiotic MIC alone vs with RW01 100 mg/L

Row | Compound | MIC [1] [µg/mL] | MIC [2] [µg/mL] | MIC [3] [µg/mL] | MIC [4] [µg/mL] | MIC [6] [µg/mL] | MIC [7] [µg/mL] | MIC [8] [µg/mL] | MIC [9] [µg/mL] | MIC [10] [µg/mL] | MIC [11] [µg/mL] | MIC [12] [µg/mL] | MIC [13] [µg/mL] | MIC [14] [µg/mL] | MIC [15] [µg/mL] | MIC [16] [µg/mL] | MIC [17] [µg/mL] | MIC [18] [µg/mL] | MIC [19] [µg/mL] | further results
1 | O=C(O)c1cn(C2CC2)c2cc(N3CCNCC3)c(F)cc2c1=O [CIP, ciprofloxacin] | 0.5 (≈ 1.51 µM) | 0.5 (≈ 1.51 µM) | 0.5 (≈ 1.51 µM) | 0.5 (≈ 1.51 µM) | 0.5 (≈ 1.51 µM) | 4 (≈ 12.1 µM) | 0.5 (≈ 1.51 µM) | 0.5 (≈ 1.51 µM) | – | – | – | – | – | – | – | – | – | – | MIC [5]: 0.5 to 1 µg/mL (≈ 1.51 to 3.02 µM)
2 | CCN[C@@H]1C[C@H](N)[C@@H](O[C@H]2OC(CN)=CC[C@H]2N)[C@H](O)[C@H]1O[C@H]1OC[C@](C)(O)[C@H](NC)[C@H]1O [Netilmicin, netilmicin] | – | – | – | – | – | – | – | – | 8 | 8 | 1 | 8 | 8 | 8 | 8 | 2 | 8 | 8 | –
3 | CCn1cc(C(=O)O)c(=O)c2cc(F)c(N3CCNCC3)cc21 [Norfloxacin, norfloxacin] | – | – | – | – | – | – | – | – | 2 | 0.5 | 0.25 | 1 | 1 | 4 | 1 | 4 | 1 | 1 | –
4 | CO/N=C(\C(=O)N[C@@H]1C(=O)N2C(C(=O)[O-])=C(C[N+]3(C)CCCC3)CS[C@H]12)c1csc(N)n1 [Cefepime, cefepime] | 4 (≈ 8.32 µM) | 4 (≈ 8.32 µM) | 4 (≈ 8.32 µM) | 4 to 8 (≈ 8.32 to 16.6 µM) | 4 (≈ 8.32 µM) | 4 (≈ 8.32 µM) | 4 (≈ 8.32 µM) | 4 (≈ 8.32 µM) | 8 | 2 | 1 | – | 4 | 8 | 4 | 4 | 0.5 | 2 | MIC [20]: ≤ 1 µg/mL; MIC [21]: ≤ 1 µg/mL; MIC [22]: ≤ 1 µg/mL; MIC [23]: ≤ 1 µg/mL; MIC [5]: 4 µg/mL (≈ 8.32 µM); MIC [24]: 4 µg/mL (≈ 8.32 µM); MIC [25]: 4 µg/mL (≈ 8.32 µM); MIC [26]: ≤ 1 µg/mL; MIC [27]: 4 µg/mL (≈ 8.32 µM); MIC [28]: 4 µg/mL (≈ 8.32 µM); MIC [29]: 4 µg/mL (≈ 8.32 µM); MIC [30]: ≤ 1 µg/mL; Antibiotic MIC + RW01 100 mg/L ([13]; strain PAOΔmexR, MIC of the antibiotic with fixed 100 mg/L RW01): 0.5 µg/mL; Potentiation (fold) ([13]; strain PAOΔmexR, antibiotic MIC alone vs with RW01 100 mg/L): ≥ 8 fold
5 | O=C(N[C@H](CO)[C@H](O)c1ccc([N+](=O)[O-])cc1)C(Cl)Cl [Chloramphenicol, chloramphenicol] | – | – | – | – | – | – | – | – | 128 | 32 | 4 | 32 | 128 | 128 | 64 | > 512 | 32 | 32 | Potentiation (fold) [14, 32]: ≥ 8 fold; Potentiation (fold) [16, 32]: ≥ 8 fold
6 | C[C@H]1[C@H](NC(=O)/C(=N\OC(C)(C)C(=O)O)c2csc(N)n2)C(=O)N1S(=O)(=O)O [Aztreonam, aztreonam] | 16 (≈ 36.7 µM) | 16 (≈ 36.7 µM) | 16 (≈ 36.7 µM) | 16 (≈ 36.7 µM) | 4 (≈ 9.19 µM) | 2 to 4 (≈ 4.59 to 9.19 µM) | 16 (≈ 36.7 µM) | 16 (≈ 36.7 µM) | 8 | 8 | 0.5 | 4 | 8 | 8 | 8 | 2 | 8 | 8 | MIC [20]: ≤ 2 µg/mL; MIC [21]: 2 to 4 µg/mL (≈ 4.59 to 9.19 µM); MIC [22]: ≤ 2 µg/mL; MIC [23]: ≤ 2 µg/mL; MIC [24]: 4 µg/mL (≈ 9.19 µM); MIC [25]: 8 to 16 µg/mL (≈ 18.4 to 36.7 µM); MIC [26]: ≤ 2 µg/mL; MIC [31]: 4 to 8 µg/mL (≈ 9.19 to 18.4 µM); MIC [28]: 16 µg/mL (≈ 36.7 µM); MIC [30]: ≤ 2 µg/mL
7 | C[C@H]1COc2c(N3CCN(C)CC3)c(F)cc3c(=O)c(C(=O)O)cn1c23 [Levofloxacin, levofloxacin] | – | – | – | – | – | – | – | – | 2 | 0.5 | 0.125 | 0.5 | 0.5 | 1 | 0.5 | 4 | 0.5 | 0.5 | –
